# Target: Tyrosinase (Agaricus bisporus)
# Assay: Inhibitory activity against mushroom tyrosinase
row,Structure (SMILES),IC50 [nM]
1,O=C(N[C@@H](Cc1ccccc1)C(=O)N[C@@H](Cc1c[nH]c2ccccc12)C(=O)N[C@@H](Cc1c[nH]c2ccccc12)C(=O)O)OCc1cc(=O)c(O)co1 [2-[(S)-2-[(S)-2-(5-Hydroxy-4-oxo-4H-pyran-2-ylmethoxycarbonylamino)-3-phenyl-propionylamino]-3-(1H-indol-3-yl)-propionylamino]-3-(1H-indol-3-yl)-propionic acid],6170
2,O=C(N[C@@H](Cc1ccccc1)C(=O)N[C@@H](Cc1c[nH]c2ccccc12)C(=O)N[C@@H](Cc1ccccc1)C(=O)O)OCc1cc(=O)c(O)co1 [2-[(S)-2-[(S)-2-(5-Hydroxy-4-oxo-4H-pyran-2-ylmethoxycarbonylamino)-3-phenyl-propionylamino]-3-(1H-indol-3-yl)-propionylamino]-3-phenyl-propionic acid],4480
3,O=C(N[C@@H](Cc1ccccc1)C(=O)N[C@@H](Cc1ccc(O)cc1)C(=O)N[C@@H](Cc1ccc(O)cc1)C(=O)O)OCc1cc(=O)c(O)co1 [(S)-2-[(S)-2-[(S)-2-(5-Hydroxy-4-oxo-4H-pyran-2-ylmethoxycarbonylamino)-1-oxo-3-phenyl-propylamino]-3-(4-hydroxy-phenyl)-propionylamino]-3-(4-hydroxy-phenyl)-propionic acid],390
4,O=C(N[C@@H](Cc1ccccc1)C(=O)N[C@@H](Cc1ccccc1)C(=O)N[C@@H](Cc1ccc(O)cc1)C(=O)O)OCc1cc(=O)c(O)co1 [(S)-2-{(S)-2-[(S)-2-(5-Hydroxy-4-oxo-4H-pyran-2-ylmethoxycarbonylamino)-1-oxo-3-phenyl-propylamino]-3-phenyl-propionylamino}-3-(4-hydroxy-phenyl)-propionic acid],330

# The remaining lines, values ahead:
row,IC50 [nM],Structure (SMILES)
1,2180,CC[C@H](C)[C@H](NC(=O)[C@H](Cc1c[nH]c2ccccc12)NC(=O)[C@H](Cc1ccccc1)NC(=O)OCc1cc(=O)c(O)co1)C(=O)O [2-[(S)-2-[(S)-2-(5-Hydroxy-4-oxo-4H-pyran-2-ylmethoxycarbonylamino)-3-phenyl-propionylamino]-3-(1H-indol-3-yl)-propionylamino]-3-(S)-methyl-pentanoic acid]
2,2130,O=C(O)C[C@H](NC(=O)[C@H](Cc1c[nH]c2ccccc12)NC(=O)[C@H](Cc1ccccc1)NC(=O)OCc1cc(=O)c(O)co1)C(=O)O [2-[(S)-2-[(S)-2-(5-Hydroxy-4-oxo-4H-pyran-2-ylmethoxycarbonylamino)-3-phenyl-propionylamino]-3-(1H-indol-3-yl)-propionylamino]-succinic acid]

# — BindingDB's records for doi:10.1016/j.bmcl.2004.03.046 (Seoul National University, 2004)
